From US12692221B2 (priority 2024, dated 2026)
Entries after “also recorded” stand apart in the source; their conditions may differ.

Key:
GR (h) = target: T1, GR (h) (Homo sapiens, UniProt P04150); test: Radioligand binding GR (h) (agonist radioligand), [^3H]dexamethasone, IM-9 cells
T1 construct: human endog; endogenous in cells; host or cells: IM-9 cells
T1 sequence (P04150 1-777): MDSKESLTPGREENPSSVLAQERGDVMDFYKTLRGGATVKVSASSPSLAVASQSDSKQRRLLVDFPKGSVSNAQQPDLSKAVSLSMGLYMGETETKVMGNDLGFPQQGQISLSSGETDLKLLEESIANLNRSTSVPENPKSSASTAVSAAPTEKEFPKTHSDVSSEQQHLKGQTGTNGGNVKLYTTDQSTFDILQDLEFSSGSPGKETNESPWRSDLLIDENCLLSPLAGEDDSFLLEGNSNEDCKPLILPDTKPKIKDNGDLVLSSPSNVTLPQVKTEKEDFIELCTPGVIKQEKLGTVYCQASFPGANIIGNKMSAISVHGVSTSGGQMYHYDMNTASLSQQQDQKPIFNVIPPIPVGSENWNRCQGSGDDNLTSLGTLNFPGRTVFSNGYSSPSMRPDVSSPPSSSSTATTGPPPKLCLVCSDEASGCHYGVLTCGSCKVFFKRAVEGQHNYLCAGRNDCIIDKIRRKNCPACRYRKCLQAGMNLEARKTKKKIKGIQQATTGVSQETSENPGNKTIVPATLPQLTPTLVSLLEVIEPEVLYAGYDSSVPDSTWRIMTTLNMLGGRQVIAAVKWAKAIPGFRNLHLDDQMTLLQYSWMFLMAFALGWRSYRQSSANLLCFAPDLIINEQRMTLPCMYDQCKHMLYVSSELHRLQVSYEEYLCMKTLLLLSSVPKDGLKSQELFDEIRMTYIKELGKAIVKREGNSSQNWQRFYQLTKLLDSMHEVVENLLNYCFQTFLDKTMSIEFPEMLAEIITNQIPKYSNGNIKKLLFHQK

male C57BL/6J mice [1] = test: Mouse head-twitch response (HTR) assay, magnetometer; type: in vivo; details: i.p.; for HTR (head twitch response), in words: doses up to 30 mpk
5-HT transporter (h) = target: T2, 5-HT transporter (h) (Homo sapiens, UniProt P31645); test: Radioligand binding 5-HT transporter (h) (antagonist radioligand), [^3H]imipramine, CHO cells
T2 construct: expressed in transfected cells; host or cells: CHO cells
T2 sequence (P31645 whole entry): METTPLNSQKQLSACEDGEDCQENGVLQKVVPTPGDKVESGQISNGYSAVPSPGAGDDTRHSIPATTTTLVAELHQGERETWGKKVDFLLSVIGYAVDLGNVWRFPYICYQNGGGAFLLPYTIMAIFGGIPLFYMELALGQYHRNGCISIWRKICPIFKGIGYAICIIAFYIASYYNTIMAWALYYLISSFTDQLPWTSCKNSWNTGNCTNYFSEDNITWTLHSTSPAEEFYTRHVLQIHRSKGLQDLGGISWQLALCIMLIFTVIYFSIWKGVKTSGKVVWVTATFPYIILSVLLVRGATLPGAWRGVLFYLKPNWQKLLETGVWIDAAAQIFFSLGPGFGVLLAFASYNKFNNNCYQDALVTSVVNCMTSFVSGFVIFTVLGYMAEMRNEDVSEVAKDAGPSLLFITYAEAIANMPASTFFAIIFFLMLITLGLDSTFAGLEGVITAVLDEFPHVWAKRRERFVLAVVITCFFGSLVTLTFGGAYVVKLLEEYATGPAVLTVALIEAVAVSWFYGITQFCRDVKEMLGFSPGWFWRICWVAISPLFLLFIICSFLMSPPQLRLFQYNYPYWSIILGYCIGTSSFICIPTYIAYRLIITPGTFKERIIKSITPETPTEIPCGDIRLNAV
Method: Methods—Binding Assays: In vitro binding assays were performed using human recombinant receptors expressed in mammalian cell lines. Receptors were expressed in either HEK-293 or CHO cells depending on the target, and assay conditions (radioligand, concentration, nonspecific competitor, temperature, and incubation time) were optimized for each receptor. All assays were conducted in triplicate, and specific binding was quantified by scintillation counting as the detection method for each listed assay.
Specific binding was expressed as a percentage of control-specific binding, and percent inhibition was calculated using the formula in Ex. 8 above. Half-maximal inhibitory concentrations (IC50) were determined by non-linear regression analysis of the inhibition curves using the Hill equation (see Ex. 8). Inhibition constants (Ki) were calculated using the Cheng-Prusoff equation (see Ex. 8). KD values used in these calculations had been previously established for each receptor under the assay conditions (see Table 6). Data analysis was performed using software developed at Cerep and validated against SigmaPlot 4.0 for Windows.

Acetylcholinesterase (h) = target: T3, Acetylcholinesterase (h) (Homo sapiens, UniProt P22303); test: Enzyme assay Acetylcholinesterase (h), photometry; type: biochemical
T3 construct: purchased Eurofins Discovery (contract assay)
T3 sequence (P22303 32-614): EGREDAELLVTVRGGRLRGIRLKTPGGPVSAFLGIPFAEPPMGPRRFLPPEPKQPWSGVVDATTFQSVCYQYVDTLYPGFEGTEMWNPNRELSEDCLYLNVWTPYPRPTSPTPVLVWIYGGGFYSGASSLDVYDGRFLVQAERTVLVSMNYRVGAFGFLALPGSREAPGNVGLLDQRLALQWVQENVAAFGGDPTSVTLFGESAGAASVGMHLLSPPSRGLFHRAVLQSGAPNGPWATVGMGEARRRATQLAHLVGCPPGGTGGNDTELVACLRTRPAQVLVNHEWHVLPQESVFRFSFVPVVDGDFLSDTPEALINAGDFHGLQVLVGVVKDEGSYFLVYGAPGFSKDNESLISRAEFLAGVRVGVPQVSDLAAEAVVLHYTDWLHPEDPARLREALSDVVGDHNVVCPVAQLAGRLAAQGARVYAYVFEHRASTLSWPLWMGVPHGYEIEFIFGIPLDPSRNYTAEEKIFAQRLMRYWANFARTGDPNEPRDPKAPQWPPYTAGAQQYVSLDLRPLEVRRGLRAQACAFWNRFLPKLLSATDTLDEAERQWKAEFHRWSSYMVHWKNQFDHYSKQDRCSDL
Method: Methods—Enzyme and Uptake Assays: In vitro enzyme and uptake assays were conducted by Eurofins Discovery using human recombinant enzymes expressed in various mammalian and insect cell lines. Enzymatic activity was measured using appropriate substrates or tracers under conditions optimized for each target, as detailed in Table 7. Reactions were incubated at room temperature for a defined duration and terminated according to established protocols. The measured components (either enzymatic products or remaining substrate) were quantified using fluorimetry, photometry, scintillation counting, or LANCE technology, depending on the assay. Assay-specific parameters, including substrate identity, cell line source, incubation time, and detection method, are provided in Table 7.
All measurements were performed in technical replicates to ensure reproducibility and data quality.
Results were expressed both as a percentage of control-specific activity and as percent inhibition of control-specific activity. Percent activity was calculated as (measured specific activity/control specific activity)×100, and percent inhibition as 100−[(measured specific activity/control specific activity)×100], based on values obtained in the presence of test compounds. IC50 and EC50 values, along with Hill coefficients (nH), were determined by nonlinear regression analysis of inhibition or concentration-response curves generated from mean replicate values. Hill curve fitting was performed as previously described using software developed at Cerep and validated against SigmaPlot® 4.0 for Windows® (© 1997 by SPSS Inc.).

5-HT2B = 5-HT2B (Homo sapiens, UniProt P41595); test: Calcium flux agonist assay, 293T cells; type: cell-based; design: expressed in transfected cells; host or cells: Human Embryonic Kidney (293T) cells, transient; details: for Emax: HEK-293T, normalized to maximum 5-HT response; for 5-HT2B receptor activation: in words
Sequence of 5-HT2B (P41595 whole entry): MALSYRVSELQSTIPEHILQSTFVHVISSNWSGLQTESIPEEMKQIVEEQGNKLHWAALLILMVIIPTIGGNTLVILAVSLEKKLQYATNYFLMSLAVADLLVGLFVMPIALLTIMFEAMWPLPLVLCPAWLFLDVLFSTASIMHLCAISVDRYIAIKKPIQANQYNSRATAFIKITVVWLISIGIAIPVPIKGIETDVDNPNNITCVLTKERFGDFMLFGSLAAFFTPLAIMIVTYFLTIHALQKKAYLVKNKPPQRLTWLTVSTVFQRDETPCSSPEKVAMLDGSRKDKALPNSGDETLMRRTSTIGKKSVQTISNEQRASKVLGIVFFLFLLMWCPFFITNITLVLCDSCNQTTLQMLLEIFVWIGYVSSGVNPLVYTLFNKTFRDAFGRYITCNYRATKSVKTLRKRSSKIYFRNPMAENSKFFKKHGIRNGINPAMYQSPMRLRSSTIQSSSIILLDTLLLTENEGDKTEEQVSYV

NMDA = test: Radioligand binding NMDA (antagonist radioligand), [^3H]CGP 39653, rat cerebral cortex
5-HT2A = 5-HT2A (Homo sapiens, UniProt P28223); test: IP-One HTRF IP-1 accumulation functional assay, 5-HT2A-expressing HEK293; type: cell-based; design: host or cells: HEK293
Sequence of 5-HT2A (P28223 whole entry, looked up): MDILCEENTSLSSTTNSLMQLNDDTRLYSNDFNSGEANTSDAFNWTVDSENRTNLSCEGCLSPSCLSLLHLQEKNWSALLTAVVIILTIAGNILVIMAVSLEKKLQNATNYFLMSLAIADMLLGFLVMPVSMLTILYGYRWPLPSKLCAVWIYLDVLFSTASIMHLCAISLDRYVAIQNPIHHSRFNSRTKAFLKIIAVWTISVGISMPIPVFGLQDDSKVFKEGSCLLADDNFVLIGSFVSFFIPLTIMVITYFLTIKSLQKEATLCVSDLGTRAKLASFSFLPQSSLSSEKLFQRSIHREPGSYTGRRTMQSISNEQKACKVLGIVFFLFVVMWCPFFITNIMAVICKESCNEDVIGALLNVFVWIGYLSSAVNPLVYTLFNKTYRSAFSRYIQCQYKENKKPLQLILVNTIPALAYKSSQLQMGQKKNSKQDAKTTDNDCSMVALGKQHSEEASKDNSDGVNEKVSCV
Method: Methods (5-HT2A and 5-HT2C IP-One Functional Activity Assays): Intracellular accumulation of IP-1 was measured using an IP-One HTRF assay kit (Cat. #62IPAPEJ, Cisbio) at WuXi AppTec Co. Ltd. (Hong Kong) Discovery Biology Unit according to their standard protocols. Briefly, the reference compounds and screening compounds were 3.16-fold serially diluted in 100% DMSO for 10 points using Bravo. 70 nL of compounds were added to the assay plate using Echo555. Added 14 μL/7500 cells/well of 5-HT2A-expressing HEK293 or 5-HT2C-expressing HEK293 to the assay plate and incubate for 60 min at 37° C. Added 3 μL of IP-1 d2 Reagent working solution and 3 μL of IP-1 Tb Cryptate Antibody working solution to all wells. The plates were incubated for 1 hour at room temperature and read for fluorescence at 620 nm and 665 nm on an EnVision Multimode Plate Reader (PerkinElmer). The ratio of the acceptor and donor emission signals (665/620) were calculated for each individual well and substituted into the standard curve to obtain the log concentration of IP level. After converting to the antilog base IP-1, the average background control signal was subtracted from each well and values were normalized to the maximal response of 5-HT at 3 μM (100%). % MAX was calculated by taking the average normalized maximal response for each compound at the highest concentration tested. The data were analyzed using the four-parameter nonlinear regression curve-fitting function in GraphPad Prism 5 (GraphPad Software, San Diego, CA) to generate potency (EC50) values. The represented plots show normalized IP-1 values versus compound concentrations; the corresponding numerical data are parameter estimates for the concentration-response curve using the four-parameter nonlinear regression curve-fitting function in GraphPad Prism 10.

male C57BL/6J mice [2] = test: Motor activity / distance traveled measured in parallel with HTR; type: in vivo, mouse; details: i.p.; for motor activity, in words: magnetometer activity

Structure (SMILES)	Mean Percent Inhibition of Control Specific Binding (GR (h)) [%]	HTR (head twitch response), in words (male C57BL/6J mice [1])	Mean Percent Inhibition of Control Specific Binding (5-HT transporter (h)) [%]	Mean Percent Inhibition of Control Specific Binding (Acetylcholinesterase (h)) [%]	Emax (5-HT2B; calcium flux, 5-HT2B) [%]	Potency (EC50) (5-HT2B; calcium flux, 5-HT2B)	5-HT2B receptor activation (5-HT2B; calcium flux)	Mean Percent Inhibition of Control Specific Binding (NMDA) [%]	EC50 (5-HT2A) [µM]	motor activity, in words (male C57BL/6J mice [2])	EC50 (5-HT2B) [µM]	Distance traveled (locomotor activity), in words (male C57BL/6J mice [2]; 0.03-30 mpk, over 30 minutes)	ED50 based on HTR counts (male C57BL/6J mice [1]; HTR counts summed over a 30-60 min interval) [mpk]	motor activity ID50 (male C57BL/6J mice [2]) [mpk]
COCc1cc(CCN)c(O)cc1CC(C)C [2CiBu-2OH-5MM, 2-(2-aminoethyl)-5-isobutyl-4-(methoxymethyl)phenol]	−3.1	did not produce meaningful HTR across the tested dose range	15.0	4.4	2.64	Unstable	unexpectedly reduced 5-HT2B receptor activation	−24.3						
COCCc1cc(CCN)c(OC)cc1Br [Compound 2CB-5ME, reference compound]	−0.5	did not produce statistically significant changes in HTR	8.6	−3.2				3.5	0.227	motor suppression reaching statistical significance at 30 mpk				
COCc1cc(CCN)c(OC)cc1Br [Compound 2CB-5MM, 2-(4-bromo-2-methoxy-5-(methoxymethyl)phenyl)ethan-1-amine]	−7.2	did not elicit a significant HTR at any tested dose	−1.3	−3.5	94			4.7	0.0591		0.0234	remained consistent across doses		
COCc1cc(CCN)c(OC)cc1CC(C)C [Compound 2CiBu-5MM, 2-[4-isobutyl-2-methoxy-5-(methoxymethyl)phenyl]ethanamine]	−3.9	subtle suppression of HTR during the first 15 min followed by a rebound in HTR counts during the last 30 min segment; also recorded: HTR counts remained near baseline throughout the observation period; also recorded: overall neutral effect compared to vehicle HTR occurrences	4.9	8.0	45.7		unexpectedly reduced 5-HT2B receptor activation	12.0	0.341	statistically significant suppression of motor activity at the two highest doses tested of 10 and 30 mpk	0.497		5.926	> 3
